{"source": "paper PMC6917776", "about": "“Discovery of a chemical probe for PRDM9” (Nature Communications, 2019)", "key": {"[1]": {"biological_target": "T1, Biotinylated PRDM9 (amino acids 195–415) (Homo sapiens, UniProt Q9NQV7)", "T1 construct": "Biotinylated PRDM9 (amino acids 195–415)", "T1 sequence (Q9NQV7 195-415)": "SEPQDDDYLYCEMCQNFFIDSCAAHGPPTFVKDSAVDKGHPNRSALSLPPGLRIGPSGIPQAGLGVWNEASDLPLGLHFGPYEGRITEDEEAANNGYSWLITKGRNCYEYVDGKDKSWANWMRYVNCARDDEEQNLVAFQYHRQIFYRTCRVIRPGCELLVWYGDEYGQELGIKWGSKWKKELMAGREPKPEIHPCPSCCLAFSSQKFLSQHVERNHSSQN", "experiment": "Surface plasmon resonance (SPR) binding", "parameters": "key to SPR steady state response, raw data (Y): response units (RU)", "conditions": "for SPR steady state response, raw data (Y): 350 µM SAM, Exp1–4", "protocol": "Biotinylated PRDM9 (amino acids 195–415) was immobilized on the flow cell of a SA sensor chip in 1x HBS-EP buffer, yielding 5700 RU. Using the buffer with 0.5% DMSO, 350 µM SAM and single cycle kinetic with 60 s contact time and a dissociation time of 120 s at a flow rate of 75 µL/min. […] Only binding to PRDM9 and PRDM7 with ∆Tm of higher than 2 °C was observed. […] All (c–e) experiments were performed in triplicate (n = 3) and data points are presented as average ± standard deviation. Source data are provided as a Source Data file.\nBinding studies by SPR were performed using a Biacore T200 (GE Health Sciences Inc.) at 20 °C. Biotinylated PRDM9 was captured onto a flow cell of a streptavidin-conjugated SA chip at approximately 5000 response units (RU) according to manufacturer’s protocol while another flow cell was left empty for reference subtraction. […]\nin the presence of SAM are the same as presented in figure 2 (a and b) within the main text. The experiments were performed in quadruplicate in the presence of 350 µM SAM (5x Km) or 750 µM SAH (5x IC50). Biotinylated PRDM9 (195-415aa) was immobilized on the flow cell of an SA sensor chip in 1x HBS-EP buffer, yielding 5700 RU. Using the buffer with 0.5% DMSO, 350 µM SAM or 750 µM SAH and single cycle kinetics with 60 s contact time and a dissociation time of 120 s at a flow rate of 75 µL/min. […]\nand at 20 µM in the presence of SAH as the highest concentration. Dilution factor of 0.33 was used to yield 5 concentrations."}, "[2]": {"biological_target": "PRDM9 (Homo sapiens, UniProt Q9NQV7)", "sequence (Q9NQV7 whole entry)": "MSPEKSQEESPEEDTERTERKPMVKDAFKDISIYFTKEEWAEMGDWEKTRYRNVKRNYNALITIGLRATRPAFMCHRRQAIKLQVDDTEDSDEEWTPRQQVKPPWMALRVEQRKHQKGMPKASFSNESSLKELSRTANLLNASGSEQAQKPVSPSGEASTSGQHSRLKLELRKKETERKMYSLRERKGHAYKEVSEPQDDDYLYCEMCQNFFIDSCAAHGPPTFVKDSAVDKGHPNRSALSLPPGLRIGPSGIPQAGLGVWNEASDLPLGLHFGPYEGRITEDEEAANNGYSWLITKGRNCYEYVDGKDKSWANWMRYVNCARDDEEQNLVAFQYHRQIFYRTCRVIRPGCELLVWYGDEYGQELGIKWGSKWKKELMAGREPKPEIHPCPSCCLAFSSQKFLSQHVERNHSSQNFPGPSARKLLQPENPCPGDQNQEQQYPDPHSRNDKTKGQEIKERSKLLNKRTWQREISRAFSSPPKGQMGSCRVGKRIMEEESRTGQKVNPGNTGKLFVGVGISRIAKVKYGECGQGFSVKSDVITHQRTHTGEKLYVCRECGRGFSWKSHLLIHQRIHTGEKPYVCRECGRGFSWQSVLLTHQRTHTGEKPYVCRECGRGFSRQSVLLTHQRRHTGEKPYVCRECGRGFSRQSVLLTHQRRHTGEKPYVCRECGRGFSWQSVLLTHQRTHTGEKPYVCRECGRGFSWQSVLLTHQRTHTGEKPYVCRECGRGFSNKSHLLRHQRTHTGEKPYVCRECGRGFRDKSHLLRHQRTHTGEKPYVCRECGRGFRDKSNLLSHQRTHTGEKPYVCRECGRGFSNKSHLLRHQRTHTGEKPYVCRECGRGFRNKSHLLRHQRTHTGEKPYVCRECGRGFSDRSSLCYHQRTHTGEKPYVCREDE", "experiment": "PRDM9 cellular assay: H3K4me3 of endogenous histone H3 in HEK293T cells (western blot)", "format": "cell-based", "conditions": "20 h, technical replicates", "protocol": "HEK293T (kind gift from Sam Benchimol, York University), or MCF7 (ATCC® HTB-22™), cells were plated (12 well plates) and next day co-transfected with 0.1 (HEK293T) or 0.2 (MCF7) µg of GFP-tagged histone H3 and with 0.1 (HEK293T) or 0.2 (MCF7) µg of Flag-tagged PRDM9/PRDM9 catalytic mutant (Y357S) and 0.8 or 0.6 µg of empty vector using JetPRIME® transfection reagent, following manufacturer instructions. After 4 h media was removed and cells were treated with compounds for 20 h. Next day, cells were lysed in lysis buffer (20 mM Tris-HCl pH 8, 150 mM NaCl, 1 mM EDTA, 10 mM MgCl2, 0.5% TritonX-100, 12.5 U mL^−1 benzonase (Sigma), complete EDTA-free protease inhibitor cocktail (Roche)). After 2 min incubation at RT, SDS was added to final 1% concentration. Cell lysates were analyzed in western blot for GFP and H3K4me3 levels. All cell lines were mycoplasma negative, as determined by MycoAlert™ Mycoplasma Detection Kit (Lonza).\nTotal cell lysates were resolved in 4–12% Bis-Tris Protein Gels (Invitrogen) and transferred in for 1.5 h (80 V) onto PVDF membrane (Millipore) in Tris-Glycine transfer buffer containing 20% MeOH and 0.05% SDS. Blots were blocked for 1 h in blocking buffer (5% milk in PBS) and incubated with primary antibodies anti-GFP (1:3000, Clontech # 632381), anti-H3K4me3 (1:1000, Millipore, #04-745), anti-histone H3 (1:2000, #ab10799, Abcam), anti-Flag (1:5000, #F4799, Sigma) in blocking buffer (5% BSA in 0.1% Tween 20 PBS) overnight at 4 °C. After five washes with 0.1% Tween 20 PBS the blots were incubated with goat-anti rabbit (IR800) and donkey anti-mouse (IR 680) antibodies (1:5000) in Odyssey Blocking Buffer (LiCor) for 1 h at RT and washed five times with 0.1% Tween 20 PBS. The signal was read on an Odyssey scanner (LiCor) at 800 nm and 700 nm and analyzed with Image Studio Ver.5.2 software. […]\nendogenous histone H3. (a) Western blot analysis of cellular lysates prepared from HEK293T cells transfected with PRDM9-FLAG and treated with the indicated concentration of compound for 20 h. Mut denotes PRDM9 catalytic mutant (Y357S). (b) Non-linear fit of H3K4me3 fluorescence intensities normalized to intensities of histone H3 is shown. The results are MEAN +/- SEM of n=3 (technical replicates). Source data are provided as a Source Data file .\n(1 picture or pasted object on this page, not shown here)"}}, "note": "Where “and” joins values, the source holds several entries; their conditions need not be identical. Equal entries are not always repeated."}
{"smiles": "COc1cc(OC)cc(-c2noc(N3CCN(C)C4(CCN(c5ccnc(C)c5)CC4)C3)n2)c1", "note": "[MRK-740]", "values": [{"measurement": "Binding to PRDM9 in the presence of SAH, compared with SAM (in words)", "setting": "[1]; 750 µM SAH versus 350 µM SAM", "value": "dramatically weaker"}, {"measurement": "SPR steady state response, raw data (Y)", "setting": "[1]; X = 1.11E-07 (concentration, unit not given)", "value": "22.0666 and 21.2987 and 20.382 and 19.6958"}, {"measurement": "SPR steady state response, raw data (Y)", "setting": "[1]; X = 1.23E-08 (concentration, unit not given)", "value": "5.847 and 5.521 and 5.156 and 5.206"}, {"measurement": "SPR steady state response, raw data (Y)", "setting": "[1]; X = 3.70E-08 (concentration, unit not given)", "value": "12.6421 and 12.2536 and 11.7778 and 11.3155"}, {"measurement": "kon", "setting": "[1]; in the presence of 350 µM SAM", "value": "1.2e+06 ± 1e+11", "unit": "M⁻¹ s⁻¹"}, {"measurement": "Kd", "setting": "[1]; in the presence of 350 µM SAM, n = 4, read-out: Kd, SPR kinetic fit", "value": "87 ± 5", "unit": "nM"}, {"measurement": "H3K4me3/endogenousH3 - western blot", "setting": "[2]; 0.256 µM", "value": "93.518 % control and 101.99 % control and 96.0071 % control"}, {"measurement": "H3K4me3/endogenousH3 - western blot", "setting": "[2]; 0.64 µM", "value": "97.4527 % control and 97.7629 % control and 94.1624 % control"}, {"measurement": "H3K4me3/endogenousH3 - western blot", "setting": "[2]; 1.6 µM", "value": "94.826 % control and 91.8208 % control and 93.3575 % control"}, {"measurement": "H3K4me3/endogenousH3 - western blot", "setting": "[2]; 4 µM", "value": "91.0956 % control and 84.7178 % control and 90.9069 % control"}, {"measurement": "H3K4me3/endogenousH3 - western blot", "setting": "[2]; 10 µM", "value": "88.6856 % control and 79.3861 % control and 84.4562 % control"}]}
